We go through seven compounds from PMC9189845, “Structure–Activity Relationships of 8-Hydroxyquinoline-Derived Mannich Bases with Tertiary Amines Targeting Multidrug-Resistant Cancer” (Journal of Medicinal Chemistry, 2022).

Broadly, the melting point is the temperature, or range, at which the solid turns liquid.

Where two headings read alike, the source gives them in different places.

The test system of one series is MES-SA/Dx5 cells. In words: PrestoBlue viability assay, MES-SA/Dx5 cells (MDR, P-gp positive). The following applies: for SR_TQ: selectivity ratio MES-SA vs MES-SA/Dx5, with TQ; for SR: selectivity ratio MES-SA vs MES-SA/Dx5, without TQ; for SR (MES-SA_TQ / Dx5_TQ) (values in parentheses): presence of 1 μM TQ.
The conditions of series [1]: cited from earlier work.
Another series has as its system MES-SA cells. In words: PrestoBlue viability assay, MES-SA cells.
Another series has as its system A431-B1 cells. The series can be described thus: PrestoBlue viability assay, A431-B1 (A431-ABCB1) cells.
Another series has as its system A431 cells. The series can be described thus: PrestoBlue viability assay, A431 cells.
Series [2] in a line: UV-visible spectrophotometric titrations (pKa). In kind it is physicochemical. The following applies: water with 0.2% (v/v) DMSO, 25 °C. The method, then: Spectrophotometrical determination of pKa values was performed as previously reported.[20],[50] An Agilent Cary 8454 diode array spectrophotometer was used to record the UV–visible spectra in the interval 200–800 nm. The path length was between 1 and 5 cm. The spectrophotometric titrations were performed in water with 0.2% (v/v) DMSO on samples containing the compounds at 2–50 μM in the pH range from 2 to 11.5 at 25.0 ± 0.1 °C at an ionic strength of 0.10 M (KCl). Proton dissociation constants and the individual spectra of the species in the different protonation states were calculated with the computer program PSEQUAD.[62]

Setting [3] is: Homo sapiens, MES-SA/Dx5, 72 h, read-out: IC50 / μM MES-SA/Dx5, absence of TQ, 72 h incubation.
Where [4] appears, read: Homo sapiens, MES-SA/Dx5, read-out: IC50 / μM MES-SA/Dx5 (values in parentheses), presence of 1 μM P-gp inhibitor tariquidar (TQ).
The mark [5] stands for this setting: Homo sapiens, MES-SA/Dx5, read-out: pIC50 value MES-SA/Dx5, MES-SA/Dx5 cells, without TQ (converted).
The mark [6] stands for this setting: Homo sapiens, MES-SA, 72 h, read-out: IC50 / μM MES-SA, absence of TQ, 72 h incubation.
Where [7] appears, read: Homo sapiens, MES-SA, read-out: IC50 / μM MES-SA (values in parentheses), presence of 1 μM P-gp inhibitor tariquidar (TQ).
Setting [8] is: Homo sapiens, MES-SA, read-out: pIC50 value MES-SA+TQ, MES-SA cells, with TQ (converted).
Setting [9] is: Homo sapiens, MES-SA, read-out: pIC50 value MES-SA, MES-SA cells, without TQ (converted).
The mark [10] stands for this setting: 72 h, read-out: IC50 / µM A431-B1, 72 h incubation.
Where [11] appears, read: read-out: pIC50 A431-B1, SARM figure (converted).
[12] abbreviates: Homo sapiens, A-431, 72 h, read-out: IC50 / µM A431, 72 h incubation.
Setting [13] is: Homo sapiens, A-431, read-out: pIC50 A431, SARM figure (converted).
Setting [14] is: read-out: IC50 / μM MES-SA/Dx5 (values in parentheses), presence of 1 μM P-gp inhibitor tariquidar (TQ).
The mark [15] stands for this setting: fraction of IC50 in P-gp negative vs positive cells.

With `Oc1c(CN2CCOCC2)cc(Cl)c2cccnc12` [Compound 29], the IC50 is 0.82 ± 0.06 µM with MES-SA/Dx5 cells (setting [3]); 1.17 ± 0.01 µM with MES-SA/Dx5 cells (setting [4]); 0.813 µM in the series with MES-SA/Dx5 cells (setting [5]); 1.52 ± 0.07 µM in the series on MES-SA cells (setting [6]); 1.66 ± 0.02 µM in the series with MES-SA cells (setting [7]); 1.66 µM with MES-SA cells (setting [8]). The IC50 was 1.51 µM in the series with MES-SA cells (setting [9]); 2.42 ± 0.29 µM in the series with A431-B1 cells (setting [10]); 2.4 µM with A431-B1 cells (setting [11]); 6.6 ± 3.57 µM in the series with A431 cells (setting [12]); 5.75 µM in the series on A431 cells (setting [13]). The SR_TQ in the series on MES-SA/Dx5 cells worked out at 1.41. The SR in the series with MES-SA/Dx5 cells was found to be 1.86. Further, the “pKa (NquinH+), experimental” value in series [1] (water, 25 °C, ref 15 (Pape et al., Cancers 2021)) is on record as below 2.
For the compound `Oc1ccc(Cl)c2cccnc12` [Compound 13, reference compound], the IC50 was 5.15 ± 0.48 µM in the series on MES-SA/Dx5 cells (setting [3]), 5.13 µM with MES-SA/Dx5 cells (setting [5]), 8.26 ± 0.1 µM in the series with MES-SA cells (setting [6]) and 8.32 µM with MES-SA cells (setting [9]). Further, the SR in the series with MES-SA/Dx5 cells came out at 1.6. Also, the “pKa (OH), experimental” value in series [1] (ref 59 (Mészáros et al., Dalton Trans. 2020)) was 7.6.
In the case of `Oc1c(CN2CCCC2)cc(Br)c2cccnc12` [Compound 16, 5-Bromo-7-(pyrrolidin-1-ylmethyl)quinolin-8-ol], the melting point fell in the range of 119 to 121 °C. Besides, the IC50 with MES-SA/Dx5 cells (setting [3]) amounted to 0.41 ± 0.14 µM. Also, the IC50 with MES-SA/Dx5 cells (setting [4]) came out at 3.14 ± 0.89 µM. Further, the IC50 in the series on MES-SA/Dx5 cells (setting [5]) was 0.389 µM. Further, in the series with MES-SA/Dx5 cells, the SR_TQ worked out at 1.46 and the SR is 9.45. The IC50 with MES-SA cells (setting [6]) was 3.9 ± 0.87 µM. In addition, the IC50 in the series on MES-SA cells (setting [7]) amounted to 4.58 ± 1.05 µM. Besides, the IC50 in the series with MES-SA cells (setting [8]) is 4.47 µM. For the same compound, the IC50 in the series with MES-SA cells (setting [9]) is 3.8 µM. The IC50 in the series on A431-B1 cells (setting [10]) came out at 1.54 ± 0.51 µM. In addition, the IC50 in the series on A431-B1 cells (setting [11]) was 1.45 µM. Further, the IC50 in the series with A431 cells (setting [12]) was 4.32 ± 0.39 µM. In the series with A431 cells (setting [13]), the IC50 was 4.27 µM.
In turn, `Oc1c(CN2CCc3ccccc3C2)ccc2cccnc12` [Compound 51, 7-((3,4-Dihydroisoquinolin-2(1H)-yl)methyl)quinolin-8-ol] came in with a melting point of 155 to 157 °C. In addition, the IC50 with MES-SA/Dx5 cells (setting [3]) amounted to 1.04 ± 0.1 µM. Besides, the IC50 with MES-SA/Dx5 cells (setting [4]) came to 2.16 ± 0.31 µM. Also, the IC50 with MES-SA/Dx5 cells (Homo sapiens, MES-SA/Dx5, read-out: pIC50 value MES-SA/Dx5 + TQ, MES-SA/Dx5 cells, with TQ (converted)) was 2.14 µM. Besides, the IC50 with MES-SA/Dx5 cells (setting [5]) is 1.05 µM. Besides, in the series on MES-SA/Dx5 cells (setting [14]), the IC50 is 1.73 µM. In the series with MES-SA/Dx5 cells, the SR_TQ worked out at 1.37 and the SR worked out at 3.03. Also, the IC50 in the series with MES-SA cells (setting [6]) came to 3.16 ± 0.41 µM. For the same compound, the IC50 in the series on MES-SA cells (setting [7]) was 2.97 ± 0.31 µM. Also, the IC50 with MES-SA cells (setting [8]) was 2.95 µM. In addition, in the series on MES-SA cells (setting [9]), the IC50 is 3.16 µM. In addition, the IC50 in the series with A431-B1 cells (setting [10]) is 2.39 ± 0.02 µM. For the same compound, the IC50 in the series with A431-B1 cells (setting [11]) is 2.4 µM. The pKa in series [2] (0.2% DMSO, I = 0.10 M KCl, read-out: pKa (OH), experimentally determined) is 6.24 ± 0.03. For the same compound, the pKa in series [2] (piperidinium / pyrrolidinium / morpholinium N, read-out: pKa (other; N+amH alkylamine nitrogen), experimentally determined) stood at 10.68 ± 0.03. In addition, the pKa in series [2] (quinolinium nitrogen, I = 0.10 M KCl, read-out: pKa (NquinH+), experimentally determined) came out at 3.07 ± 0.03. Also, the IC50 with A431 cells (setting [12]) is 4.74 ± 0.04 µM. For the same compound, the IC50 in the series on A431 cells (setting [13]) is 4.79 µM.
Regarding `Oc1c(CN2CCCCC2)ccc2cccnc12` [Compound 3], the IC50 with MES-SA/Dx5 cells (setting [3]) is 0.85 ± 0.18 µM; in the series with MES-SA/Dx5 cells (setting [4]), 2.69 µM; in the series on MES-SA/Dx5 cells (setting [5]) it was 0.832 µM; with MES-SA/Dx5 cells (setting [14]), 1.87 µM; with MES-SA/Dx5 cells (read-out: IC50 / μM MES-SA/Dx5, absence of TQ, 72 h incubation), 0.86 ± 0.19 µM; in the series on MES-SA cells (setting [6]), 5.21 ± 0.95 µM. In addition, the IC50 is 4.18 µM in the series on MES-SA cells (setting [7]); 4.07 µM in the series on MES-SA cells (setting [8]); 5.13 µM with MES-SA cells (setting [9]); 3.81 µM with MES-SA cells (read-out: IC50 / μM MES-SA (values in parentheses), presence of 1 μM P-gp inhibitor tariquidar (TQ)); 5.46 ± 1.01 µM in the series with MES-SA cells (read-out: IC50 / μM MES-SA, absence of TQ, 72 h incubation); 1.62 ± 0.92 µM in the series on A431-B1 cells (setting [10]). Further, the IC50 was 2.48 ± 0.7 µM in the series with A431-B1 cells (read-out: IC50 / µM A431-B1, 72 h incubation); 2.4 µM in the series with A431-B1 cells (setting [11]); 7.3 ± 0.98 µM with A431 cells (setting [12]); 9.77 µM in the series on A431 cells (setting [13]); 10.1 ± 2.95 µM in the series with A431 cells (read-out: IC50 / µM A431, 72 h incubation). In addition, the SR_TQ in the series on MES-SA/Dx5 cells was 1.56. For the same compound, the SR with MES-SA/Dx5 cells is on record as 6.13. Also, the “pKa (other; N+amH), experimental” value in series [1] (water, 25 °C, ref 50 (Pape et al., Dalton Trans. 2018)) is recorded as above 11.
As to `Oc1c(CN2CCc3ccccc3C2)cc(Br)c2cccnc12` [Compound 81, 5-Bromo-7-((3,4-dihydroisoquinolin-2(1H)-yl)methyl)quinolin-8-ol], the melting point was 156 to 159 °C. Moreover, the IC50 in the series with MES-SA/Dx5 cells (setting [3]) came out at 0.34 ± 0.05 µM. The IC50 in the series on MES-SA/Dx5 cells (setting [4]) is 1.48 µM. The IC50 with MES-SA/Dx5 cells (setting [5]) was 0.363 µM. Moreover, the “SR (MES-SA / MES-SA/Dx5)” value in the series on MES-SA/Dx5 cells (fraction of IC50 in P-gp negative vs positive cells, absence of TQ) was 6.50. Further, the “SR (MES-SA_TQ / Dx5_TQ) (values in parentheses)” value in the series on MES-SA/Dx5 cells (setting [15]) stood at 1.66. Further, in the series with MES-SA/Dx5 cells, the SR_TQ was 1.82 and the SR is 6.23. The IC50 with MES-SA cells (setting [6]) turned out to be 2.23 ± 0.15 µM. The IC50 in the series with MES-SA cells (setting [7]) is 2.45 µM. Besides, in the series on MES-SA cells (setting [8]), the IC50 was 1.78 µM. The IC50 in the series with MES-SA cells (setting [9]) is 2.29 µM.
`CN1CCN(Cc2ccc3cccnc3c2O)CC1` [Compound 34, 7-((4-Methylpiperazin-1-yl)methyl)quinolin-8-ol] displayed a melting point of 120 to 122 °C. Further, the IC50 in the series on MES-SA/Dx5 cells (setting [3]) is 8.67 ± 1.69 µM. For the same compound, the IC50 in the series on MES-SA/Dx5 cells (setting [4]) was 14.1 µM. In addition, the IC50 in the series on MES-SA/Dx5 cells (setting [5]) is 8.51 µM. Besides, the “SR (MES-SA_TQ / Dx5_TQ) (values in parentheses)” value in the series on MES-SA/Dx5 cells (setting [15]) is on record as 1.10. For the same compound, in the series with MES-SA/Dx5 cells, the SR_TQ is on record as 1.1 and the SR turned out to be 1.93. The IC50 in the series with MES-SA cells (setting [6]) is 16.7 ± 1.86 µM. Also, the IC50 in the series with MES-SA cells (setting [7]) came to 15.5 ± 0.19 µM. Also, the IC50 in the series with MES-SA cells (setting [8]) was 15.5 µM. Besides, in the series with MES-SA cells (setting [9]), the IC50 is 16.6 µM. The IC50 in the series on A431-B1 cells (setting [10]) is 11.3 ± 0.95 µM. Also, in the series on A431-B1 cells (setting [11]), the IC50 was 11.2 µM. Besides, the IC50 in the series with A431 cells (setting [12]) is 25.5 ± 1.98 µM. The IC50 with A431 cells (setting [13]) was 25.7 µM.
